Results from PubChem BioAssay (NCI).
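Interpolation was linear, between the two tested concentrations surrounding the appropriate level; five concentrations were tested over 48 hours in 96-well plates. TGI: total growth inhibition.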

Columns and labels:
Experiment in all cases: NCI tumour cell line growth inhibition, 48 h
786-0 renal = tested on: 786-0 renal
A498 renal = tested on: A498 renal
A549 NSCLC = tested on: A549 NSCLC
ACHN renal = tested on: ACHN renal
BT-549 breast = tested on: BT-549 breast
CAKI-1 renal = tested on: CAKI-1 renal
CCRF-CEM leukemia = tested on: CCRF-CEM leukemia
COLO 205 colon = tested on: COLO 205 colon
EKVX NSCLC = tested on: EKVX NSCLC
HCC-2998 colon = tested on: HCC-2998 colon
HCT-116 colon = tested on: HCT-116 colon
HCT-15 colon = tested on: HCT-15 colon
HL-60(TB) leukemia = tested on: HL-60(TB) leukemia
HOP-62 NSCLC = tested on: HOP-62 NSCLC
HOP-92 NSCLC = tested on: HOP-92 NSCLC
HS 578T breast = tested on: HS 578T breast
HT29 colon = tested on: HT29 colon
IGROV1 ovarian = tested on: IGROV1 ovarian
K-562 leukemia = tested on: K-562 leukemia
KM12 colon = tested on: KM12 colon
LOX IMVI melanoma = tested on: LOX IMVI melanoma
M14 melanoma = tested on: M14 melanoma
MALME-3M melanoma = tested on: MALME-3M melanoma
MCF7 breast = tested on: MCF7 breast
MDA-MB-435 = tested on: MDA-MB-435
MDA-N = tested on: MDA-N
MOLT-4 leukemia = tested on: MOLT-4 leukemia
NCI-H460 lung = tested on: NCI-H460 lung
NCI-H522 lung = tested on: NCI-H522 lung
NCI/ADR-RES ovarian = tested on: NCI/ADR-RES ovarian
OVCAR-3 ovarian = tested on: OVCAR-3 ovarian
OVCAR-4 ovarian = tested on: OVCAR-4 ovarian
OVCAR-5 ovarian = tested on: OVCAR-5 ovarian
OVCAR-8 ovarian = tested on: OVCAR-8 ovarian
PC-3 prostate = tested on: PC-3 prostate
RPMI-8226 leukemia = tested on: RPMI-8226 leukemia
SF-268 CNS = tested on: SF-268 CNS
SF-295 CNS = tested on: SF-295 CNS
SK-MEL-2 melanoma = tested on: SK-MEL-2 melanoma
SK-MEL-28 melanoma = tested on: SK-MEL-28 melanoma
SK-MEL-5 melanoma = tested on: SK-MEL-5 melanoma
SK-OV-3 ovarian = tested on: SK-OV-3 ovarian
SN12C renal = tested on: SN12C renal
SNB-19 CNS = tested on: SNB-19 CNS
SR leukemia = tested on: SR leukemia
SW-620 colon = tested on: SW-620 colon
T-47D breast = tested on: T-47D breast
U251 CNS = tested on: U251 CNS
UACC-257 melanoma = tested on: UACC-257 melanoma
UACC-62 melanoma = tested on: UACC-62 melanoma
UO-31 renal = tested on: UO-31 renal
DU-145 prostate = tested on: DU-145 prostate
NCI-H226 lung = tested on: NCI-H226 lung
NCI-H23 lung = tested on: NCI-H23 lung
RXF 393 renal = tested on: RXF 393 renal
SF-539 CNS = tested on: SF-539 CNS
SNB-75 CNS = tested on: SNB-75 CNS
TK-10 renal = tested on: TK-10 renal
MDA-MB-231 breast = tested on: MDA-MB-231 breast

SMILES: COc1ccc(C2=Nn3c(nnc3-c3ccccc3)S/C2=C\c2ccc(-c3ccc([N+](=O)[O-])cc3)o2)cc1
- TGI (786-0 renal): > 100 µM
- TGI (A498 renal): > 100 µM
- TGI (A549 NSCLC): > 100 µM
- TGI (ACHN renal): > 100 µM
- TGI (BT-549 breast): > 100 µM
- TGI (CAKI-1 renal): > 100 µM
- TGI (CCRF-CEM leukemia): 32.7 µM
- TGI (COLO 205 colon): 70 µM
- TGI (EKVX NSCLC): > 100 µM
- TGI (HCC-2998 colon): > 100 µM
- TGI (HCT-116 colon): > 100 µM
- TGI (HCT-15 colon): > 100 µM
- TGI (HL-60(TB) leukemia): 59 µM
- TGI (HOP-62 NSCLC): > 100 µM
- TGI (HOP-92 NSCLC): > 100 µM
- TGI (HS 578T breast): > 100 µM
- TGI (HT29 colon): 90.3 µM
- TGI (IGROV1 ovarian): > 100 µM
- TGI (K-562 leukemia): 88.8 µM
- TGI (KM12 colon): > 100 µM
- TGI (LOX IMVI melanoma): > 100 µM
- TGI (M14 melanoma): 86.1 µM
- TGI (MALME-3M melanoma): > 100 µM
- TGI (MCF7 breast): > 100 µM
- TGI (MDA-MB-435): 51.3 µM
- TGI (MDA-N): > 100 µM
- TGI (MOLT-4 leukemia): 76.6 µM
- TGI (NCI-H460 lung): > 100 µM
- TGI (NCI-H522 lung): 81.8 µM
- TGI (NCI/ADR-RES ovarian): > 100 µM
- TGI (OVCAR-3 ovarian): > 100 µM
- TGI (OVCAR-4 ovarian): > 100 µM
- TGI (OVCAR-5 ovarian): > 100 µM
- TGI (OVCAR-8 ovarian): > 100 µM
- TGI (PC-3 prostate): > 100 µM
- TGI (RPMI-8226 leukemia): 80.2 µM
- TGI (SF-268 CNS): > 100 µM
- TGI (SF-295 CNS): > 100 µM
- TGI (SK-MEL-2 melanoma): 67.6 µM
- TGI (SK-MEL-28 melanoma): > 100 µM
- TGI (SK-MEL-5 melanoma): > 100 µM
- TGI (SK-OV-3 ovarian): > 100 µM
- TGI (SN12C renal): > 100 µM
- TGI (SNB-19 CNS): > 100 µM
- TGI (SR leukemia): > 100 µM
- TGI (SW-620 colon): > 100 µM
- TGI (T-47D breast): > 100 µM
- TGI (U251 CNS): > 100 µM
- TGI (UACC-257 melanoma): > 100 µM
- TGI (UACC-62 melanoma): > 100 µM
- TGI (UO-31 renal): > 100 µM

SMILES: COC(=O)C1SC(N(C)c2ccccc2)=NC12c1ccccc1Nc1ccccc12 (stereo not drawn)
- TGI (786-0 renal): 94 µM
- TGI (A498 renal): 55.6 µM
- TGI (A549 NSCLC): 87.8 µM
- TGI (ACHN renal): > 100 µM
- TGI (BT-549 breast): 45.1 µM
- TGI (CAKI-1 renal): 74.6 µM
- TGI (CCRF-CEM leukemia): 57.7 µM
- TGI (COLO 205 colon): 30.7 µM
- TGI (DU-145 prostate): > 100 µM
- TGI (EKVX NSCLC): 66.3 µM
- TGI (HCC-2998 colon): 42.4 µM
- TGI (HCT-116 colon): 53.5 µM
- TGI (HCT-15 colon): 49.3 µM
- TGI (HL-60(TB) leukemia): 37.5 µM
- TGI (HOP-62 NSCLC): > 100 µM
- TGI (HOP-92 NSCLC): 59.4 µM
- TGI (HS 578T breast): 53 µM
- TGI (HT29 colon): 62.2 µM
- TGI (IGROV1 ovarian): 53.1 µM
- TGI (K-562 leukemia): 47.7 µM
- TGI (KM12 colon): 66.7 µM
- TGI (LOX IMVI melanoma): 50.8 µM
- TGI (M14 melanoma): 38.7 µM
- TGI (MALME-3M melanoma): 30.9 µM
- TGI (MCF7 breast): 81.9 µM
- TGI (MDA-MB-435): 40 µM
- TGI (MDA-N): 57 µM
- TGI (MOLT-4 leukemia): 28.4 µM
- TGI (NCI-H226 lung): 51.5 µM
- TGI (NCI-H23 lung): 35.9 µM
- TGI (NCI-H460 lung): 27 µM
- TGI (NCI-H522 lung): 38.5 µM
- TGI (NCI/ADR-RES ovarian): 65.4 µM
- TGI (OVCAR-3 ovarian): 34.1 µM
- TGI (OVCAR-4 ovarian): 73.9 µM
- TGI (OVCAR-5 ovarian): 55.2 µM
- TGI (OVCAR-8 ovarian): 67.6 µM
- TGI (PC-3 prostate): 53.9 µM
- TGI (RPMI-8226 leukemia): 12 µM
- TGI (RXF 393 renal): > 100 µM
- TGI (SF-268 CNS): 72.5 µM
- TGI (SF-295 CNS): 50.7 µM
- TGI (SF-539 CNS): 38.6 µM
- TGI (SK-MEL-2 melanoma): 31.7 µM
- TGI (SK-MEL-28 melanoma): 45.8 µM
- TGI (SK-MEL-5 melanoma): 26 µM
- TGI (SK-OV-3 ovarian): > 100 µM
- TGI (SN12C renal): 66.7 µM
- TGI (SNB-19 CNS): 66.1 µM
- TGI (SNB-75 CNS): 84.7 µM
- TGI (SR leukemia): 43.3 µM
- TGI (SW-620 colon): > 100 µM
- TGI (T-47D breast): 50 µM
- TGI (TK-10 renal): 72.5 µM
- TGI (U251 CNS): 98.8 µM
- TGI (UACC-257 melanoma): 64 µM
- TGI (UACC-62 melanoma): 32 µM
- TGI (UO-31 renal): 52.3 µM

SMILES: Cn1c(N)c(Cc2ccc(Cl)cc2)c(=O)[nH]c1=O
- TGI (786-0 renal): > 100 µM
- TGI (A498 renal): > 100 µM
- TGI (A549 NSCLC): > 100 µM
- TGI (ACHN renal): > 100 µM
- TGI (BT-549 breast): > 100 µM
- TGI (CAKI-1 renal): > 100 µM
- TGI (CCRF-CEM leukemia): > 100 µM
- TGI (COLO 205 colon): > 100 µM
- TGI (DU-145 prostate): > 100 µM
- TGI (EKVX NSCLC): > 100 µM
- TGI (HCT-116 colon): > 100 µM
- TGI (HCT-15 colon): > 100 µM
- TGI (HL-60(TB) leukemia): > 100 µM
- TGI (HOP-62 NSCLC): > 100 µM
- TGI (HOP-92 NSCLC): > 100 µM
- TGI (HS 578T breast): > 100 µM
- TGI (HT29 colon): > 100 µM
- TGI (IGROV1 ovarian): > 100 µM
- TGI (K-562 leukemia): > 100 µM
- TGI (KM12 colon): > 100 µM
- TGI (LOX IMVI melanoma): > 100 µM
- TGI (M14 melanoma): > 100 µM
- TGI (MALME-3M melanoma): > 100 µM
- TGI (MCF7 breast): > 100 µM
- TGI (MDA-MB-231 breast): > 100 µM
- TGI (MDA-MB-435): > 100 µM
- TGI (MDA-N): > 100 µM
- TGI (MOLT-4 leukemia): > 100 µM
- TGI (NCI-H226 lung): > 100 µM
- TGI (NCI-H23 lung): > 100 µM
- TGI (NCI-H522 lung): > 100 µM
- TGI (NCI/ADR-RES ovarian): > 100 µM
- TGI (OVCAR-3 ovarian): > 100 µM
- TGI (OVCAR-5 ovarian): > 100 µM
- TGI (OVCAR-8 ovarian): > 100 µM
- TGI (RPMI-8226 leukemia): > 100 µM
- TGI (RXF 393 renal): > 100 µM
- TGI (SF-268 CNS): > 100 µM
- TGI (SF-295 CNS): > 100 µM
- TGI (SF-539 CNS): > 100 µM
- TGI (SK-MEL-2 melanoma): > 100 µM
- TGI (SK-MEL-28 melanoma): > 100 µM
- TGI (SK-MEL-5 melanoma): > 100 µM
- TGI (SK-OV-3 ovarian): > 100 µM
- TGI (SN12C renal): > 100 µM
- TGI (SNB-19 CNS): > 100 µM
- TGI (SNB-75 CNS): > 100 µM
- TGI (SR leukemia): > 100 µM
- TGI (SW-620 colon): > 100 µM
- TGI (T-47D breast): > 100 µM
- TGI (TK-10 renal): > 100 µM
- TGI (UACC-257 melanoma): > 100 µM
- TGI (UACC-62 melanoma): > 100 µM
- TGI (UO-31 renal): > 100 µM
